Data on 12 molecules can be found in patent publication US10233198B2, “Pro-drugs of NSAIAs with very high skin and membranes penetration rates and their new medicinal uses” (Techfields Pharma Co., Ltd., priority 2007, dated 2019).

Data set [1] relates to SLAC/GK rats, type 2 diabetes. Description: Blood glucose in type 2 diabetic rats, transdermal. The conditions noted are these: baseline of the treatment group; no fasting. The data set is classed as in vivo. The source says:
(§1) The pro-drugs in this invention lower blood glucose levels in rat models (SLAC/GK, type 2 diabetes, n=7). 50% acetone solution of diethylaminoethyl acetylsalicylate.acetylsaficylic acid salt (P-1, in acetone); 4-acetamidophenyl salicylyldimethylaminobutyrate.HCl (P-6), diethylaminoethyl 5-(2,4-difluorophenyl) acetylsalicylate.5-(2,4-difluorophenyl) acetylsalicylic acid salt (P-8), diethylaminoethyl salicylsalicylate.AcOH (P-9), diethylaminoethyl salicylate.AcOH (P-10), diethylaminoethyl 5-acetamido-acetylsalicylate (P-58), diethylaminoethyl acetylsalicylsalicylate. acetylsalicylsalicylic acid salt (P-59), diethylaminoethyl acetylsalicylsalicylate. acetylsalicylsalicylsalicylic acid salt (P-60) (equal to of 20 mg/kg of NSAIAs) were administered transdermally to the backs (about 1.5 cm^2) of rats (fur was shaved) once per day (at 8 am) for 5 weeks. The blood glucose levels were measured once every 3 days at 4 pm (no fasting) from the second week to the fifth week. The blood lipid levels were measured at the end of the fifth week.

For data set [2], the system named is Chinese White rabbits. Description: Autologous blood clot pulmonary embolism model, thrombus propagation. The data set is classed as in vivo. Particulars: 15 mg/kg topically on the back; after 2 days. Here is the method: Eighteen Chinese White rabbits weighing between 3.0 and 3.5 kg (aged 6-7 months) were selected and divided into three groups (control, P-1 and […] groups, n=6). One hour before the experiment, thrombi were made by aspirating venous blood (1 ml) into a sterilized bottle to clot. To avoid fragmentation and slow lysis, the autologous blood clots were stabilized in temperature-controlled (70° C.) distilled water for 10 min. After anesthesia, the femoral veins were exposed and distally isolated, and autologous blood clots (0.05 g/kg) were injected through an indwelling catheter (20GA), which had been placed in the femoral vein isolated earlier. 50% acetone solution of diethylaminoethyl acetylsalicylate.acetylsalicylic acid salt (P-1, in acetone, 15 mg/kg) and diethylaminoethyl acetylsalicylsalicylate.acetylsalicylsalicylic acid salt (P-59, 15 mg/kg) were topically applied to the back of the rabbits. After 2 days, rabbits were euthanized with an excessive intravenous injection of sodium amobarbital (60 mg/kg). The lungs and hearts were isolated to observe whether thrombi were present in the pulmonary arteries. The lungs were immersed in 10% formalin for 24 h. Consecutive transverse sections along the obstructed pulmonary arteries were paraffin-embedded and stained with hematoxylin-eosine. […]

For data set [3], the system named is normal rats. Description: Blood glucose in normal rats, transdermal. The data set is classed as in vivo. The conditions noted are these: no fasting.
In data set [4] the test system is SLAC:NOD-IDDM mice, type 1 diabetes. Briefly: Blood glucose in type 1 diabetic mice, transdermal. The class given is in vivo. The conditions noted are these: no fasting. The source says:
The pro-drugs in this invention lower blood glucose levels in mouse models (SLAC:NOD-IDDM, type 1 diabetes, n=7). 20% acetone solution of diethylaminoethyl acetylsalicylate.acetylsalicylic acid salt (P-1, in acetone); 4-acetamidophenyl salicylyldimethylaminobutyrate.HCl (P-6), diethylaminoethyl 5-(2,4-difluorophenyl) acetylsalicylate.5-(2,4-difluorophenyl) acetylsalicylic acid salt (P-8), diethylaminoethyl salicylsalicylate.AcOH (P-9), diethylaminoethyl salicylate.AcOH (P-10), diethylaminoethyl 5-acetamido-acetylsalicylate (P-58), diethylaminoethyl acetylsalicylsalicylate. acetylsalicylsalicylic acid salt (P-59), diethylaminoethyl acetylsalicylsalicylate. acetylsalicylsalicylsalicylic acid salt (P-60) (equal to of 20 mg/kg of NSAIAs) were administered transdermally to the backs (about 1 cm^2) of mice (fur was shaved) once per day (at 8 am) for 7 weeks. The blood glucose levels were measured once every 3 days at 3 pm (no fasting) from the fourth week to the seventh week.

Data set [5] has as its system SLAC/GK rats, type 2 diabetes. Briefly: Blood lipid levels in type 2 diabetic rats, transdermal. The data set is classed as in vivo. The conditions noted are these: baseline of the treatment group.
Text: as §1

Data set [6] has as its system human colon cancer cells (LS174J). Description: Anti-tumor activity, human colon cancer xenograft in nude mice, topical. The conditions noted are these: for Weight of nude mice: day 30, about 30 μl of 5% (1.5 mg) topically every 8 hours. Here is the method:
In the second anti-tumor experiment, human colon cancer cells (LS174J, 2-3 mm^3 of tumor tissue was used in each mouse) were subcutaneously xenografted into nude mice (BALB). After 7 days, the tumors were growing to the size of 55±10 mm^3 (0.055 ml). Then about 30 μl of 5% (equal to 1.5 mg of the pro-drugs) diethylaminoethyl acetylsalicylate.acetylsalicylic acid salt (P-1, in acetone); 1-piperidinepropyl 2[(2,6-dichlorophenyl)amino]benzene acetate.AcOH (P-2, in water), 1-pyrrolidinepropyl 2-(3-benzoylphenyl) propionate.AcOH (P-3, in water), 4-piperidinemethyl 2-(3-phenoxyphenyl)propionate.AcOH (P-4, in water), 3-piperidinemethyl 2-(ρ-isobutylphenyl) propionate.AcOH (P-5, in water), diethylaminoethyl 1-methyl-5-(4-methylbenzoyl)-1H-pyrrole-2-acetate.AcOH (P-13, in water), 2-(4-morpholinyl)ethyl 2-amino-3-benzoylbenzeneacetateAcOH (P-16, in water), diethylaminoethyl 2-(10,11-dihydro-10-oxodibenzo(b,f)thiepin-2-yl)propionate.AcOH (P-36), diethylaminoethyl 2-[(2,3-dimethylphenypamino]benzoate.AcOH (P-46, in water), diethylaminoethyl 2-[(2,6-dichloro-3-methylphenyl)amino]benzoate.AcOH (P47, in water), N-(2-thiazoyl)-4-N,N-dimethylaminobutyryloxy-2-methyl-2H,1,2-benzothiazine-3-car boxamide 1,1-dioxide.HCl (P-52, in acetone) was topically applied to the human colon cancer cells-implanted area (near the front leg) every 8 hours.
(In xenograft studies the graft and the host belong to different species.)

Data set [7] can be described thus: In vivo penetration through skin of intact rats; distribution in plasma and tissues.
In data set [8] the test system is human breast cancer cells (BCAP-37). Description: Anti-tumor activity, human breast cancer xenograft in nude mice, topical. Particulars: day 42; 30 μl of 5% (1.5 mg) topically every 8 hours; BCAP-37 xenograft; in g (unit assumed). Here is the method: For evaluation of anti-tumor activity of the pro-drugs of NSAIAs, human breast cancer cells (BCAP-37, 2-3 mm^3 of tumor tissue was used in each mouse) were subcutaneously xenografted into nude mice (BALE, 12 groups, 7 mice each group). After 14 days, the tumors were growing to the size of 50±10 mm^3 (0.05 ml). Then 30 μl of 5% (equal to 1.5 mg of the pro-drugs) diethylaminoethyl acetylsalicylate.acetylsalicylic acid salt (P-1, in acetone); 1-piperidinepropyl 2[(2,6-dichlorophenyl)amino]benzene acetate.AcOH (P-2, in water), 1-pyrrolidinepropyl 2-(3-benzoylphenyl) propionate.AcOH (P-3, in water), 4-piperidinemethyl 2-(3-phenoxyphenyl)propionate.AcOH (P-4, in water), 3-piperidinemethyl 2-(ρ-isobutylphenyl) propionate.AcOH (P-5, in water), diethylaminoethyl 1-(p-chlorobenzoyl)-5-methoxy-2-methylindole 3-acetate.AcOH (P-11, in water), 2-(4-morpholinyl)ethyl (Z)-5-fluoro-2-methyl-1-[(4-methylsulfinyl) phenylmethylene]-1H-indene-3-acetate.AcOH (P-12, in water), diethylaminoethyl 2-(2,4-dichlorophenoxy)benzeneacetate.AcOH (P-19, in water), diethylaminoethyl 2-(8-methyl-10, 11-dihydro-11-oxodibenz(b,f)oxepin-2-yl)propionate.AcOH (P-37, in water), 1-pyrrolidinepropyl 2-[[(3-(trifluoromethyl)phenyl)amino]benzoate.AcOH (P-48, in water), 4-N,N-dimethylaminobutyryloxy-2-methyl-N-2-pyridinyl-2H,1,2-benzothiazine-3-carb oxamide 1,1-dioxide.HCl (P-51, in acetone) was topically applied to the human breast cancer cells-implanted area (near the front leg) every 8 hours.

Data set [9] deals with Chinese White rabbits. Description: Malassezia-induced psoriasis-like lesions. The class given is in vivo. Particulars: 5% aqueous solution applied twice per day; 10 days after the application. An excerpt: COX-1 and COX-2 play a very important role in animal immune-responses. NSAIAs inhibite COX-1 and COX-2. The pro-drugs of NSAIAs in this invention may be very useful for treating psoriasis, discoid lupus erythematosus, systemic lupus erythematosus (SLE), and other autoimmune diseases. Heavy suspensions of Malassezia [Rosenberg, E. W., et al., Mycopathologia, 72, 147-154 (1980)] were applied to the shaved skin on the backs of the Chinese white rabbits (n=4×6) twice (at 7 am and 7 pm) per day for 2 weeks, lesions similar to psoriasis resulted.

[10] abbreviates: baseline of the treatment group.
Setting [11] is: 4 hours after 20% P-2 in 1 ml ethanol on about 5 cm^2 of rat back.

`CC(=O)Oc1ccccc1C(=O)O.CCN(CC)CCOC(=O)c1ccccc1OC(C)=O` [P-1, diethylaminoethyl acetylsalicylate.acetylsalicylic acid salt]: the “Blood glucose, diabetic rats, Baseline” value in [1] is 16.1 ± 3 mmol/L. In data set [2], the “Histology of lung tissue and vascular walls after clot injection” value was “both lung tissue and vascular walls were normal”. The “Blood glucose, normal rats, Baseline” value in data set [3] (setting [10]) was 6.4 ± 1 mmol/L. The “Blood glucose, normal rats, Average” value in data set [3] (transdermal, equal to 20 mg/kg of NSAIAs once per day for 5 weeks, second to fifth week) is given as 6.3 ± 1 mmol/L. Besides, the “Blood glucose, type I diabetic mice, Baseline” value in data set [4] (setting [10]) was found to be 26.1 ± 5 mmol/L. Moreover, in [4] (transdermal, equal to 20 mg/kg of NSAIAs once per day for 7 weeks, fourth to seventh week), the “Blood glucose, type I diabetic mice, Average” value is on record as 6.5 ± 1 mmol/L. In addition, the “Triglycerides, Baseline” value in data set [5] stood at 5.9 ± 0.5 mmol/L.

On to `CC(=O)O.O=C(Cc1ccccc1Nc1c(Cl)cccc1Cl)OCCCN1CCCCC1` [P-2, 1-piperidinepropyl 2[(2,6-dichlorophenyl)amino]benzene acetate.AcOH], for which, in data set [6], the “Weight of nude mice” value is reported as 22 ± 2. Also, in data set [7] (setting [11]), the “Brain level of prodrug or metabolite” value turned out to be 25 ± 6 µg/g, the “Kidney level of prodrug or metabolite” value worked out at 20 ± 6 µg/g, the “Liver level of prodrug or metabolite” value was found to be 22 ± 8 µg/g and the “Plasma level of prodrug or metabolite” value was determined as 40000 ± 10000 ng/mL. In addition, the “Weight of nude mice” value in data set [8] stood at 22 ± 2.

As for `CC(=O)O.CCN(CC)CCOC(=O)Cc1c(C)n(C(=O)c2ccc(Cl)cc2)c2ccc(OC)cc12` [P-11, diethylaminoethyl 1-(p-chlorobenzoyl)-5-methoxy-2-methylindole 3-acetate.AcOH], the “Weight of nude mice” value in data set [8] stood at 21 ± 2.

`CC(=O)O.CCN(CC)CCOC(=O)Cc1ccc(C(=O)c2ccc(C)cc2)n1C` [P-13, diethylaminoethyl 1-methyl-5-(4-methylbenzoyl)-1H-pyrrole-2-acetate.AcOH]: in data set [9], the Psoriasis-like lesions entry is reported as “the lesions were resolved”. Besides, the “Weight of nude mice” value in [6] is listed as 21 ± 2.

Consider `CC(=O)O.CCN(CC)CCOC(=O)Cc1cccc(C(=O)c2ccc(Br)cc2)c1N` [P-17, diethylaminoethyl 2-amino-3-(4-bromo-benzoyl)benzeneacetate.AcOH], for which the Psoriasis-like lesions entry in [9] was “the lesions were resolved”.

Consider `C=CCOc1ccc(CC(=O)OCCN(CC)CC)cc1Cl.CC(=O)O` [P-18, diethylaminoethyl 3-chloro-4-(2-propenyloxy)benzeneacetate.AcOH], for which, in data set [9], the Psoriasis-like lesions entry is on record as “the lesions were resolved”.

With `CC(=O)O.CCN(CC)CCOC(=O)COC(=O)Cc1c(C)n(C(=O)c2ccc(Cl)cc2)c2ccc(OC)cc12` [P-20], the Psoriasis-like lesions entry in data set [9] is reported as “the lesions were resolved”.

As to `CC(=O)O.CCN(CC)CCOC(=O)Cc1sc(-c2ccccc2)nc1-c1ccc(Cl)cc1` [P-21, diethylaminoethyl 4-(4-chlorophenyl)-2-phenyl-5-thiazoleacetate.AcOH], the Psoriasis-like lesions result in data set [9] was “the lesions were resolved”.

For the molecule `CC(=O)O.CCN(CC)CCOC(=O)Cc1cn(-c2ccccc2)nc1-c1ccc(Cl)cc1` [P-22, diethylaminoethyl 3-(4-chlorophenyl)-1-phenyl-1H-pyrazole-4-acetate.AcOH], the Psoriasis-like lesions entry in [9] is “the lesions were resolved”.

Take `CC(=O)O.O=C(OCCCN1CCCC1)c1ccccc1Nc1cccc(C(F)(F)F)c1` [P-48]: the “Weight of nude mice” value in data set [8] was determined as 22 ± 3.

On to `CN(C)CCCC(=O)OC1=C(C(=O)Nc2nccs2)N(C)S(=O)(=O)c2ccccc21.Cl` [P-52, N-(2-thiazoyl)-4-N,N-dimethylaminobutyryloxy-2-methyl-2H,1,2-benzothiazine-3-car boxamide 1,1-dioxide.HCl], for which the Tumor size in [6] (day 30, about 30 μl of 5% (1.5 mg) topically every 8 hours from day 7) came to 690 ± 250 mm^3.

In the case of `CC(C(=O)O)c1cccc(C(=O)c2ccccc2)c1` (stereo not drawn) [ketoprofen, reference compound], the “Drug found in rat tissues or plasma after topical application of the parent drug itself” value in data set [7] (4 hours after 20% parent drug in 1 ml ethanol on about 5 cm^2 of rat back, blood, liver, kidney, brain) is “None of these drugs was found”.
